Measured values: patent US12022832B2, “Compounds and methods for treating nematode infections” (The Governing Council of The University of Toronto, priority 2018, dated 2024)
Where two headings read alike, the source gives them in different places.

How the values were obtained:
C. elegans (L1) = test: C. elegans L1 viability, three day protocol; type: in vivo, Caenorhabditis elegans; conditions: for EC (80% dead): Caenorhabditis elegans, read-out: C. elegans (L1 viability): lowest concentration tested in which at least 80% of animals were dead; for C. elegans (L1 viability): lowest concentration tested in which greater than 20% of animals were dead: compounds 55-11, 55-12-21, 55-12-23
M. incognita (J2) = test: M. incognita J2 viability in vitro; type: in vivo, Meloidogyne incognita; conditions: assay done using 45 uM; for M. incognita (J2 viability in vitro): concentration giving >20% and <80% death: 48 or 72 hours, other compounds
C. elegans = C. elegans acute motor (rubber-band, convulsion/paralysis) phenotype on solid substrate; type: in vivo, Caenorhabditis elegans; conditions: for C. elegans acute motor phene: concentration at which 10-50% of the animals exhibit convulsion/paralysis phenotypes / C. elegans acute motor phene: lowest concentration at which 50% of the young adult animals exhibit convulsion/paralysis phenotypes: solid substrate; for C. elegans acute motor phene: concentration at which 10-50% of the animals exhibit convulsion/paralysis phenotypes: 80 minutes, compounds 55-12-6, 55-12-9, 55-12-12, 55-12-21, 55-12-23; for C. elegans acute motor phene: lowest concentration at which 50% of the young adult animals exhibit convulsion/paralysis phenotypes: 80 minutes of incubation
Excerpt: Worms are scored for the indicated phenotype (see legend); convulsions along the circumferential axis is characterized as the ‘shaker’ phenotype in C. elegans; convulsions along the anterior-posterior axis is characterized as the ‘rubber-band’ phenotype in C. elegans. 18 young-adult animals were scored at each time-point for rubber-band (animals spontaneously contract or do so upon touch on the nose with a platinum wire), hyperactive movement (observing rapid lateral nose movement) and shaker (spontaneous circumferential rotations). […] Data are showing the mean number of animals with each phenotype.
If a penetrant phenotype is observed, a dose-response analysis is performed; the EC50 is shown.
Each compound was added to the MYOB substrate before pouring to achieve desired concentration after diffusion through the media. The final concentration of dimethyl sulfoxide (DMSO) in each of the wells was […]. Young adult or fourth-staged larval worms are transferred into each well using a platinum wire pick.
˜25 young adult animals of each indicated strain were picked using a platinum wire onto 2% MYOB agar containing the indicated drug condition with 1% DMSO. […] 18 animals were scored per trial; data are the mean response of 2-3 replicates showing the standard error of the mean.

M. incognita (eggs) = test: M. incognita egg-hatch assay; type: in vivo, Meloidogyne incognita; conditions: 45 uM of each compound, ~50 eggs per well; effect threshold not stated
C. elegans (dauer) = test: C. elegans dauer viability; type: in vivo, Caenorhabditis elegans; conditions: relative to no-drug controls; for C. elegans (dauer viability): lowest concentration tested in which at least 80% of animals were dead: 72 hours
C. elegans (adult) = test: C. elegans adult viability; type: in vivo, Caenorhabditis elegans; conditions: 72 hours, relative to no-drug controls
P. pacificus (L1) = test: P. pacificus L1 viability; type: in vivo, Pristionchus pacificus; conditions: 72 hours; for P. pacificus (L1 viability): lowest concentration tested in which at least 80% of animals were dead: relative to no-drug controls
P. hermaphrodita (L1) = test: P. hermaphrodita L1 viability; type: in vivo, Phasmarhabditis hermaphrodita; conditions: 72 hours; for P. hermaphrodita (L1 viability): lowest concentration tested in which at least 80% of animals were dead: relative to no-drug controls; for P. hermaphrodita (L1 viability): lowest concentration tested in which greater than 20% of animals were dead: compounds 55-6, 55-12-20, 55-12-22
M. incognita = M. incognita Quick Soil Test (tomato); type: in vivo, Meloidogyne incognita; conditions: 45 uM, ~2000 J2 per tomato plant, worms in soil 4 days; for M. incognita (Quick Soil Test): concentration giving >80% killing: J2s counted in root tissue; for M. incognita (Quick Soil Test): concentration giving 10-20% killing: other compounds
[1] = 72 hours, relative to no-drug controls

| Compound | EC (80% dead) (C. elegans (L1); [1]) [µM] | M. incognita (J2 viability in vitro): concentration giving >20% and <80% death (M. incognita (J2)) | M. incognita (Egg Hatch Rate) (M. incognita (eggs)) | C. elegans (dauer viability): lowest concentration tested in which at least 80% of animals were dead (C. elegans (dauer)) | C. elegans (adult viability): lowest concentration tested in which at least 80% of animals were dead (C. elegans (adult)) | further results |
| --- | --- | --- | --- | --- | --- | --- |
| CCCc1ccc(-c2ccc(OC(F)F)cc2)cn1 [IIIaa (wact-55-12-7), 5-(4-(difluoromethoxy)phenyl)-2-propylpyridine] | 30 |  |  |  |  | M. incognita (J2 viability in vitro): concentration giving >80% death (M. incognita (J2); 48 or 72 hours of incubation): 45 µM |
| CCCc1ccc(-c2ccc(OC(F)F)cn2)cc1 [IIIbb (wact-55-12-8), 5-(difluoromethoxy)-2-(4-propylphenyl)pyridine] |  | np |  |  |  | EC (80% dead) (C. elegans (L1); 72 h): 60 µM |
| CCCc1ccc(-c2ccc(OC(F)F)nc2)cc1 [IIIcc (wact-55-12-9), 2-(difluoromethoxy)-5-(4-propylphenyl)pyridine] |  | np | np |  |  | EC (80% dead) (C. elegans (L1); 72 h): 60 µM; C. elegans acute motor phene: concentration at which 10-50% of the animals exhibit convulsion/paralysis phenotypes (C. elegans): 60 μM |
| CCc1ccc(-c2ccc(OC(F)F)cc2)nc1 [IIIdd (wact-55-12-10), 2-(4-(difluoromethoxy)phenyl)-5-ethylpyridine] | 30 |  |  | 30 µM | np | P. pacificus (L1 viability): lowest concentration tested in which at least 80% of animals were dead (P. pacificus (L1)): 15 µM; P. hermaphrodita (L1 viability): lowest concentration tested in which at least 80% of animals were dead (P. hermaphrodita (L1)): 15 µM |
| Cc1ccc(-c2ccc(OC(F)F)cc2)nc1 [IIIee (wact-55-12-11), 2-(4-(difluoromethoxy)phenyl)-5-methylpyridine] | 60 | np |  |  |  |  |
| FC(F)Oc1ccc(-c2ccccn2)cc1 [IIIff (wact-55-12-12), 2-(4-(difluoromethoxy)phenyl)pyridine] |  | 45 µM |  | np | np | C. elegans (L1 viability): lowest concentration tested in which at least 80% of animals were dead (C. elegans (L1); [1]): np; C. elegans acute motor phene: concentration at which 10-50% of the animals exhibit convulsion/paralysis phenotypes (C. elegans): 60 μM; P. pacificus (L1 viability): lowest concentration tested in which at least 80% of animals were dead (P. pacificus (L1)): 60 µM; P. hermaphrodita (L1 viability): lowest concentration tested in which at least 80% of animals were dead (P. hermaphrodita (L1)): 60 µM; M. incognita (Quick Soil Test): concentration giving >80% killing (M. incognita): 45 µM |
| CC#Cc1ccc(-c2ccc(OC(F)F)cc2)nc1 [IIIhh (wact-55-12-14), 2-(4-(difluoromethoxy)phenyl)-5-(prop-1-yn-1-yl)pyridine] | 7.5 | np |  |  |  |  |
| NCc1ccc(-c2ccc(OC(F)F)cc2)nc1 [IIIkk (wact-55-12-17), (6-(4-(difluoromethoxy)phenyl)pyridin-3-yl)methanamine] |  | np | np |  |  | C. elegans (L1 viability): lowest concentration tested in which at least 80% of animals were dead (C. elegans (L1); [1]): np; C. elegans acute motor phene: lowest concentration at which 50% of the young adult animals exhibit convulsion/paralysis phenotypes (C. elegans): np; M. incognita (Hatching Mobility) (M. incognita (eggs)): np |
| CCCc1cccc(-c2ccc(OC(F)F)cc2)n1 [IIInn (wact-55-12-20), 2-(4-(difluoromethoxy)phenyl)-6-propylpyridine] |  |  |  | np | np | C. elegans (L1 viability): lowest concentration tested in which at least 80% of animals were dead (C. elegans (L1); [1]): np; C. elegans acute motor phene: lowest concentration at which 50% of the young adult animals exhibit convulsion/paralysis phenotypes (C. elegans): np; P. pacificus (L1 viability): lowest concentration tested in which greater than 20% of animals were dead (P. pacificus (L1); compound 55-12-20): 30 µM; P. hermaphrodita (L1 viability): lowest concentration tested in which greater than 20% of animals were dead (P. hermaphrodita (L1)): 60 µM |
| CCCc1ccnc(-c2ccc(OC(F)F)cc2)c1 [IIIoo (wact-55-12-21), 2-(4-(difluoromethoxy)phenyl)-4-propylpyridine] |  | np | np | np | np | C. elegans (L1 viability): lowest concentration tested in which greater than 20% of animals were dead (C. elegans (L1); [1]): 60 µM; C. elegans acute motor phene: concentration at which 10-50% of the animals exhibit convulsion/paralysis phenotypes (C. elegans): 60 μM; P. pacificus (L1 viability): lowest concentration tested in which at least 80% of animals were dead (P. pacificus (L1)): 30 µM; P. hermaphrodita (L1 viability): lowest concentration tested in which at least 80% of animals were dead (P. hermaphrodita (L1)): 30 µM; M. incognita (Quick Soil Test): concentration giving >80% killing (M. incognita): 45 µM |
| CCCc1cccnc1-c1ccc(OC(F)F)cc1 [IIIpp (wact-55-12-22), 2-(4-(difluoromethoxy)phenyl)-3-propylpyridine] |  |  |  | np | np | C. elegans (L1 viability): lowest concentration tested in which at least 80% of animals were dead (C. elegans (L1); [1]): np; C. elegans acute motor phene: lowest concentration at which 50% of the young adult animals exhibit convulsion/paralysis phenotypes (C. elegans): np; P. pacificus (L1 viability): lowest concentration tested in which at least 80% of animals were dead (P. pacificus (L1)): np; P. hermaphrodita (L1 viability): lowest concentration tested in which greater than 20% of animals were dead (P. hermaphrodita (L1)): 60 µM |
| CCCc1ccc(-c2cccc(OC(F)F)c2)nc1 [IIIqq (wact-55-12-23), 2-(3-(difluoromethoxy)phenyl)-5-propylpyridine] |  | np | np | np | np | C. elegans (L1 viability): lowest concentration tested in which greater than 20% of animals were dead (C. elegans (L1); [1]): 60 µM; C. elegans acute motor phene: concentration at which 10-50% of the animals exhibit convulsion/paralysis phenotypes (C. elegans): 60 μM; M. incognita (Hatching Mobility) (M. incognita (eggs)): np; P. pacificus (L1 viability): lowest concentration tested in which at least 80% of animals were dead (P. pacificus (L1)): 30 µM; P. hermaphrodita (L1 viability): lowest concentration tested in which at least 80% of animals were dead (P. hermaphrodita (L1)): 15 µM; M. incognita (Quick Soil Test): concentration giving 10-20% killing (M. incognita): 45 uM |
| CCCc1cnc(-c2ccc(OC(F)F)cc2)nc1 [IIIss (wact-55-12-25), 2-(4-(difluoromethoxy)phenyl)-5-propylpyrimidine] |  | np |  |  |  |  |
| CC(C)Cc1ccc(-c2ccc(OC(F)F)cc2)nc1 [IIItt (wact-55-12-26), 2-(4-(difluoromethoxy)phenyl)-5-isobutylpyridine] | 30 | np |  |  |  | M. incognita (Hatching Mobility) (M. incognita (eggs)): np; M. incognita (Quick Soil Test): concentration giving 10-20% killing (M. incognita): 45 uM |
| CCCCc1ccc(-c2ccc(OC(F)F)cc2)nc1 [IIIuu (wact-55-12-27), 5-butyl-2-(4-(difluoromethoxy)phenyl)pyridine] | 15 | np | np |  |  |  |
| CCCCc1ccc(-c2ccc(OC)cc2)nc1 [IIIw (wact-55-12-28), 5-butyl-2-(4-methoxyphenyl)pyridine] | 15 | 45 µM |  |  |  | M. incognita (Quick Soil Test): concentration giving >80% killing (M. incognita): 45 µM |
| CCCc1ccc(-c2ccc(SC(F)F)cc2)nc1 [IIIy (wact-55-12-5), 2-(4-((difluoromethyl)thio)phenyl)-5-propylpyridine] | 30 | np |  |  |  |  |
| CCCc1ccc(-c2ccc(OC(F)F)cc2)cc1 [IIIz (wact-55-12-6), 4-(difluoromethoxy)-4′-propyl-1,1′-biphenyl] | 30 | np | np |  | np | C. elegans acute motor phene: concentration at which 10-50% of the animals exhibit convulsion/paralysis phenotypes (C. elegans): 60 μM; C. elegans (dauer viability): concentration where 10-20% death is exhibited (C. elegans (dauer); compounds 55-2, 55-8, 55-9, 55-12-6): 60 μM; P. hermaphrodita (L1 viability): lowest concentration tested in which at least 80% of animals were dead (P. hermaphrodita (L1)): 7.5 µM; M. incognita (Quick Soil Test): concentration giving 10-20% killing (M. incognita): 45 uM |
| CCCCCCCCCCCCCC(=O)O[C@@H]1[C@@H](C)[C@@]2(O)[C@@H](C=C(CO)C[C@]3(O)C(=O)C(C)=C[C@@H]23)[C@@H]2C(C)(C)[C@]12OC(C)=O [PMA, phorbol myristate acetate, reference compound] |  |  |  |  |  | induction of rubber-band (RB) convulsions (C. elegans; in vivo): fail to induced a RB phenotype |
